Assays:
[1] = biological target: Met (phospho-Met, HGF-stimulated PC-3 prostate cancer cells) (Homo sapiens (Human), UniProt P08581); assay: Met autophosphorylation ELISA in PC-3 cells (Example F); type: cell-based; details: cellular activity; Met autophosphorylation ELISA in PC-3 cells; read-out: c-Met IC50
How it was run: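 Serum-starved (3 h) PC-3 cells were treated 1 h with compounds (8-point curve, 0.3% DMSO), then stimulated with 100 ng/mL human HGF for 10 min. Lysate phospho-Met (panTyr) was measured by sandwich ELISA, normalised to DMSO and reference-inhibitor controls. IC50 came from 4-parameter logistic fit.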

[2] = biological target: Human MET (residues 956-1390) (Homo sapiens (Human), UniProt P08581); assay: Human Met kinase assay, HTRF KinEase (Example D-2); type: biochemical; details: protocol of Example D-2 (other compounds); read-out: c-Met IC50
Human MET (residues 956-1390), sequence (P08581 956-1390): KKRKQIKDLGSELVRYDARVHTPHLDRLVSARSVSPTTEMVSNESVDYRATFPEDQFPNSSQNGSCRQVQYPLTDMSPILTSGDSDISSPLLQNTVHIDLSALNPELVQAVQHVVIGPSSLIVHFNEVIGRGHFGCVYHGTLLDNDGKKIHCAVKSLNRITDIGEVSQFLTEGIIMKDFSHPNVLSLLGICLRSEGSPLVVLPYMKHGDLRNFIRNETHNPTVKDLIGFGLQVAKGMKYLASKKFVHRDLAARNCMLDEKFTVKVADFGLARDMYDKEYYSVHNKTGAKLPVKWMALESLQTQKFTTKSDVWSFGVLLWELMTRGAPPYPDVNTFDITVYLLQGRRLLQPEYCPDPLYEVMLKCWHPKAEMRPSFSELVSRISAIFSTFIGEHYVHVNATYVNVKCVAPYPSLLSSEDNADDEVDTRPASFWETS
How it was run: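 IC50 values come from a 4-parameter logistic fit of the […] fluorescence ratio, set between DMSO (100%) and reference compound at 1 μM (0%). Reactions held MET 956-1390 at 0.1 ng/well, ATP at Km, biotinylated peptide, 5 mM MgCl2, 1 mM MnCl2, 1 mM DTT and 3% DMSO, and ran 40 min at room temperature before streptavidin-XL665/Eu-antibody detection.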

[3] = biological target: Human MER (residues 528-999) (Homo sapiens (Human), UniProt Q12866); assay: Human Mer kinase assay, HTRF KinEase (Example C-2); type: biochemical; details: protocol of Example C-2 (other compounds)
Human MER (residues 528-999), sequence (Q12866 528-999): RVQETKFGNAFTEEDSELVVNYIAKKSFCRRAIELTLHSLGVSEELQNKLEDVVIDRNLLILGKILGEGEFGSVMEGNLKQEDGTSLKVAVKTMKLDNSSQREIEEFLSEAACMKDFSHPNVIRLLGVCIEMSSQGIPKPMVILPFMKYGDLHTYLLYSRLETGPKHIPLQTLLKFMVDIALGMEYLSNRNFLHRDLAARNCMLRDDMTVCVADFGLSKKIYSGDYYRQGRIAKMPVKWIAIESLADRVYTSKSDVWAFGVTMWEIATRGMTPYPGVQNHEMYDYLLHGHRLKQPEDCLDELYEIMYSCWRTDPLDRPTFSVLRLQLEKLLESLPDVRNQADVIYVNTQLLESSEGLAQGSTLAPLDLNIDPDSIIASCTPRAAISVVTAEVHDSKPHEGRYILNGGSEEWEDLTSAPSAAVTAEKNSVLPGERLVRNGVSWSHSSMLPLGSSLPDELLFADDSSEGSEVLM
How it was run: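 IC50 values from 10 concentrations via 4-parameter logistic fit of […], with DMSO as 100% and 1 μM reference compound as 0% activity. Reaction: MER kinase domain 528-999, 1 ng/well, 40 μM ATP (Km), biotin peptide, 5 mM MgCl2, 1 mM DTT, 3% DMSO, room temperature 60 min; HTRF streptavidin-XL665/Eu-antibody detection.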

Met (phospho-Met, HGF-stimulated PC-3 prostate cancer cells), sequence (P08581 25-1390): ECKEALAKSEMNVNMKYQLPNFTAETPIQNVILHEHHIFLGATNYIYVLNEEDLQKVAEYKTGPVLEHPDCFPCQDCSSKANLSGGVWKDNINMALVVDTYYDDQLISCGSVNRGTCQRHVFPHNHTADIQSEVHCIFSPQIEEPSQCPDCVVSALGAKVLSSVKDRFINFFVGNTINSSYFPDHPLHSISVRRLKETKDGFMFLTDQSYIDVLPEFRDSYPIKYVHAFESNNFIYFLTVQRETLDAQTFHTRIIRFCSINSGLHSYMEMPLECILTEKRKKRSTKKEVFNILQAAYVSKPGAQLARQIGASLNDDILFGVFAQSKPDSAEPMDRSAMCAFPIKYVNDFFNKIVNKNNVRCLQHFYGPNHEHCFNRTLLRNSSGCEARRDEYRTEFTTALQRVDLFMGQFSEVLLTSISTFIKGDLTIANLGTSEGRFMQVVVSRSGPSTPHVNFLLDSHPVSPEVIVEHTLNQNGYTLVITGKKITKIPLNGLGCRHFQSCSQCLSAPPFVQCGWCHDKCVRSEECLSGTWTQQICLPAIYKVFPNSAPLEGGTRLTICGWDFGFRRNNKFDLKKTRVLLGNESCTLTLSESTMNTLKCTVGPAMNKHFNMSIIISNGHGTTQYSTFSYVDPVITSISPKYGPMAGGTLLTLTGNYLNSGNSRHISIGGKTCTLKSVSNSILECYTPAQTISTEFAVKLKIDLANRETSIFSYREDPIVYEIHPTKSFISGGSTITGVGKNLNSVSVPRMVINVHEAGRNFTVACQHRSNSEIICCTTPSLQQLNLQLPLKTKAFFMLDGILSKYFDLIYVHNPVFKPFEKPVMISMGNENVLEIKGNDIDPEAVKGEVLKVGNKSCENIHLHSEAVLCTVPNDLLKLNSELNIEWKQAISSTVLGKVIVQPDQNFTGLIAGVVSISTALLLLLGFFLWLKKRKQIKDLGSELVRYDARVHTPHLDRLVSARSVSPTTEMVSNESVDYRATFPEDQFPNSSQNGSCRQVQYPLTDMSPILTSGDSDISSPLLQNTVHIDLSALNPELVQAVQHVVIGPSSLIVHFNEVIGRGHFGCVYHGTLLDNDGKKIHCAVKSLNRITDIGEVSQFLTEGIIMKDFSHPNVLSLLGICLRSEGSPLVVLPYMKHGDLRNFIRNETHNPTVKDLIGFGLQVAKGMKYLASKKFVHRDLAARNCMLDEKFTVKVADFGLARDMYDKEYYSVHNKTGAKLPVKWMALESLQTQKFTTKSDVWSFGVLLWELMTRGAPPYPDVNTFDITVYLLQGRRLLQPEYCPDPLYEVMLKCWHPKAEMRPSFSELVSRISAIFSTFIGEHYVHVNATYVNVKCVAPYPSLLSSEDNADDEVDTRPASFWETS

Row | IC50 [1] | IC50 [2] | IC50 [3] | SMILES
1 | 0.1 to 0.3 µM | < 0.1 µM | < 0.1 µM | COc1ccc2c(Oc3ccc(NC(=O)c4cnc(C)c(-c5ccc(F)cc5)c4O)cc3)ccnc2c1 [Compound 108, 5-(4-Fluorophenyl)-4-hydroxy-N-[4-(7-methoxyquinolin-4-yl)oxyphenyl]-6-methylpyridine-3-carboxamide]
2 | < 0.1 µM | < 0.1 µM | < 0.1 µM | COc1cc2nccc(Oc3ccc(NC(=O)c4cn(CCO)cc(-c5ccc(F)cc5)c4=O)cc3F)c2nc1OC [Compound 117, N-[4-[(6,7-Dimethoxy-1,5-naphthyridin-4-yl)oxy]-3-fluorophenyl]-5-(4-fluorophenyl)-1-(2-hydroxyethyl)-4-oxopyridine-3-carboxamide]
3 | < 0.1 µM | < 0.1 µM | < 0.1 µM | COc1cc2nccc(Oc3ccc(NC(=O)c4c(C)ncn(-c5ccc(F)cc5)c4=O)cc3F)c2nc1OC [Compound 98, N-[4-[(6,7-Dimethoxy-1,5-naphthyridin-4-yl)oxy]-3-fluorophenyl]-1-(4-fluorophenyl)-4-methyl-6-oxopyrimidine-5-carboxamide]
4 | < 0.1 µM | < 0.1 µM | < 0.1 µM | COc1cnc2c(Oc3ccc(NC(=O)c4cn(C)cc(-c5ccc(F)cc5)c4=O)cc3F)ccnc2c1 [Compound 112, N-[3-Fluoro-4-[(7-methoxy-1,5-naphthyridin-4-yl)oxy]phenyl]-5-(4-fluorophenyl)-1-methyl-4-oxopyridine-3-carboxamide]
5 | 0.1 to 0.3 µM | < 0.1 µM | < 0.1 µM | CCn1cc(C(=O)Nc2ccc(Oc3ccnc4cc(OC)ccc34)c(F)c2)c(=O)c(-c2ccc(F)cc2)c1C [Compound 107, 1-Ethyl-N-[3-fluoro-4-(7-methoxyquinolin-4-yl)oxyphenyl]-5-(4-fluorophenyl)-6-methyl-4-oxopyridine-3-carboxamide]
6 | < 0.1 µM | < 0.1 µM | < 0.1 µM | COc1cc2nccc(Oc3ccc(NC(=O)c4cncc(-c5ccc(F)cc5)c4O)cc3)c2nc1OC [Compound 118, N-[4-[(6,7-Dimethoxy-1,5-naphthyridin-4-yl)oxy]phenyl]-5-(4-fluorophenyl)-4-hydroxypyridine-3-carboxamide]
7 | < 0.1 µM | < 0.1 µM | < 0.1 µM | COc1cc2nccc(Oc3ccc(NC(=O)c4cnc(C)c(-c5ccc(F)cc5)c4O)cc3F)c2cc1OC [Compound 109, N-[4-(6,7-Dimethoxyquinolin-4-yl)oxy-3-fluorophenyl]-5-(4-fluorophenyl)-4-hydroxy-6-methylpyridine-3-carboxamide]
8 | < 0.1 µM | < 0.1 µM | < 0.1 µM | COc1cc2nccc(Oc3ccc(NC(=O)c4cnc(N(C)C)n(-c5ccc(F)cc5)c4=O)cc3F)c2nc1OC [Compound 100, N-[4-[(6,7-Dimethoxy-1,5-naphthyridin-4-yl)oxy]-3-fluorophenyl]-2-(dimethylamino)-1-(4-fluorophenyl)-6-oxopyrimidine-5-carboxamide]
9 | < 0.1 µM | 0.1 to 0.3 µM | < 0.1 µM | COc1ccc2nccc(Oc3ccc(NC(=O)c4cn(C)c(C)c(-c5ccc(F)cc5)c4=O)cc3F)c2n1 [Compound 113, N-[3-Fluoro-4-[(6-methoxy-1,5-naphthyridin-4-yl)oxy]phenyl]-5-(4-fluorophenyl)-1,6-dimethyl-4-oxopyridine-3-carboxamide]
10 | < 0.1 µM | < 0.1 µM | < 0.1 µM | CCn1cc(C(=O)Nc2ccc(Oc3ccnc4cc(OC)c(OC)nc34)c(F)c2)c(=O)c(-c2ccc(F)cc2)c1 [Compound 116, N-[4-[(6,7-Dimethoxy-1,5-naphthyridin-4-yl)oxy]-3-fluorophenyl]-1-ethyl-5-(4-fluorophenyl)-4-oxopyridine-3-carboxamide]
11 | < 0.1 µM | < 0.1 µM | < 0.1 µM | COc1ccc2c(Oc3ccc(NC(=O)c4cnc(C)c(-c5ccc(F)cc5)c4O)cc3F)ccnc2c1 [Compound 105, N-[3-Fluoro-4-(7-methoxyquinolin-4-yl)oxyphenyl]-5-(4-fluorophenyl)-4-hydroxy-6-methylpyridine-3-carboxamide]
12 | < 0.1 µM | < 0.1 µM | < 0.1 µM | COc1cc2nccc(Oc3ccc(NC(=O)c4cnc(C)n(-c5ccc(F)cc5)c4=O)cc3F)c2nc1OC [Compound 97, N-[4-[(6,7-Dimethoxy-1,5-naphthyridin-4-yl)oxy]-3-fluorophenyl]-1-(4-fluorophenyl)-2-methyl-6-oxopyrimidine-5-carboxamide]
13 | < 0.1 µM | < 0.1 µM | < 0.1 µM | COc1ccc2c(Oc3ccc(NC(=O)c4cn(C(C)C)c(C)c(-c5ccc(F)cc5)c4=O)cc3F)ccnc2c1 [Compound 106, N-[3-Fluoro-4-(7-methoxyquinolin-4-yl)oxyphenyl]-5-(4-fluorophenyl)-6-methyl-4-oxo-1-propan-2-ylpyridine-3-carboxamide]
14 | 0.1 to 0.3 µM | < 0.1 µM | < 0.1 µM | COc1cnc2c(Oc3ccc(NC(=O)c4cn(C)c(C)c(-c5ccc(F)cc5)c4=O)cc3)ccnc2c1 [Compound 111, 5-(4-Fluorophenyl)-N-[4-[(7-methoxy-1,5-naphthyridin-4-yl)oxy]phenyl]-1,6-dimethyl-4-oxopyridine-3-carboxamide]
15 | < 0.1 µM | < 0.1 µM | < 0.1 µM | COc1cc2nccc(Oc3ccc(NC(=O)c4c[nH]c(=O)n(-c5ccc(F)cc5)c4=O)cc3F)c2nc1OC [Compound 102, N-[4-[(6,7-Dimethoxy-1,5-naphthyridin-4-yl)oxy]-3-fluorophenyl]-3-(4-fluorophenyl)-2,4-dioxo-1H-pyrimidine-5-carboxamide]
16 | < 0.1 µM | < 0.1 µM | < 0.1 µM | COc1cc2nccc(Oc3ccc(NC(=O)c4cn(C(C)C)c(C)c(-c5ccc(F)cc5)c4=O)cc3)c2nc1OC [Compound 115, N-[4-[(6,7-Dimethoxy-1,5-naphthyridin-4-yl)oxy]phenyl]-5-(4-fluorophenyl)-6-methyl-4-oxo-1-propan-2-ylpyridine-3-carboxamide]
17 | < 0.1 µM | < 0.1 µM | < 0.1 µM | COc1cc2nccc(Oc3ccc(NC(=O)c4c(C)nc(C)n(-c5ccc(F)cc5)c4=O)cc3F)c2nc1OC [Compound 101, N-[4-[(6,7-Dimethoxy-1,5-naphthyridin-4-yl)oxy]-3-fluorophenyl]-1-(4-fluorophenyl)-2,4-dimethyl-6-oxopyrimidine-5-carboxamide]
